From patent US20220194960A1, “WEE1 INHIBITOR AND PREPARATION AND USE THEREOF” (SHOUYAO HOLDINGS (BEIJING) CO., LTD., priority 2019, published 2022)

Columns and labels:
WEE1 kinase = target: T1, WEE1 kinase (Homo sapiens, UniProt P30291); test: WEE1 kinase binding assay (LanthaScreen EU); details: WEE1 kinase 20 nM, Kinase Tracer 178 100 nM, 23° C. for 60 min, read-out: WEEI (IC50)
T1 construct: purchased Carna bioscience
Procedure: 1. Assay for WEE1 Kinase Inhibitory Activity (IC50) on Compounds
The WEE1 kinase binding assay was established and optimized with LanthaScreen EU for the determination of the activity of compounds. 10 mM compounds were subjected to ten-fold gradient dilution in 100% DMSO (6 concentrations in total), 5 μL of diluent from each concentration was added to 45 μL of reaction buffer (50 mM HEPES (4-hydroxyethylpiperazine ethanesulfonic acid), pH 7.5, 10 mM MgCl2 (magnesium chloride), 1 mM EGTA (ethylene glycol diethyl ether diamine tetraacetic acid), 0.01% Brij-35 (polyoxyethylene lauryl ether)) for blending. On this basis, 2 μL diluent from each concentration was added to 48 μL of reaction buffer for blending as a 4*compound (final concentrations of 1000, 100, 10, 1, 0.1, 0 nM) for later use. Reaction buffer was used to formulate 4*WEE1 kinase (purchased from Carna bioscience, a final concentration of 20 nM), 4*LanthaScreen EU-anti-GST Antibody (purchased from Invitrogen, PV5594, a fuel concentration of 2 nM), and 4*Kinase Tracer 178 (purchased from Invitrogen, PV5593, a final concentration of 100 nM). 2.5 μL of 4*compound was added to a 384-well plate (OptiPlate-384, purchased from PerkinElmer), followed by adding 2.5 μL of 4*WEE1 kinase, standing for 5 min at room temperature. Then 2.5 μL of 4*LanthaScreen EU-anti-GST Antibody was added followed by 2.5 μL of 4*Kinase Tracer 178. The reaction was started by centrifugation (a total reaction volume of 10 μL). The 384-well plate was wrapped with tin foil paper and placed in an incubator at 23° C. for 60 min. Fluorescence values (excitation at 320 nm, detecting emitted light at 665 nm and 615 nm, and a ratio of the two as enzyme activity) were read on Envision (purchased from PerkinElmer). The enzyme activity of each compound was measured at 6 concentrations, and the IC50 value of the compound was calculated using GraFit6.0 software (Erithacus Software).
The aforementioned “*” refers to multiplying, representing multiples.

[1] = tested on: Human non-small cell lung cancer cells NCI-H1299; test: NCI-H1299 cell proliferation inhibition (CellTiter-Glo); format: cell-based; details: cultured 3 days, table head NCI-H1975, method NCI-H1299
Procedure: 2. Determination of Cell Proliferation Activity of Compounds:
NCI-H1299 cell proliferation inhibition screening method was established using CellTiter-fib detection reagent from Promega.
Human non-small cell lung cancer cells NCI-H1299 were cultured in 25 cm^2 or 75 cm^2 plastic tissue culture flasks (Corning) filled with DMEM (Gibco) medium supplemented with 10% fetal bovine serum (Hyclone) under 37° C., 95% air, and 5% CO2, and subcultured 2-3 times a week.
Cells were seeded at 1000 cells/well in a 96-well cell culture plate (Corning), 195 μL/well, and cultured under 37° C., 95% air, and 5% CO2. The next day test compound was added: 10 mM compounds (dissolved in DMSO) were subjected to 3-fold gradient dilution in DMSO, 2 μL of diluent from each concentration was added to 48 μL of serum-fret medium, and finally 5 μL of the diluted compound was added to the plate seeded with cells. The final concentration of DMSO in the cell culture was 0.1% and the foul concentration of the test compound was 0.3 nM-10 μM. The cells were cultured at 37° C. for 3 days.

T1 sequence (P30291 whole entry): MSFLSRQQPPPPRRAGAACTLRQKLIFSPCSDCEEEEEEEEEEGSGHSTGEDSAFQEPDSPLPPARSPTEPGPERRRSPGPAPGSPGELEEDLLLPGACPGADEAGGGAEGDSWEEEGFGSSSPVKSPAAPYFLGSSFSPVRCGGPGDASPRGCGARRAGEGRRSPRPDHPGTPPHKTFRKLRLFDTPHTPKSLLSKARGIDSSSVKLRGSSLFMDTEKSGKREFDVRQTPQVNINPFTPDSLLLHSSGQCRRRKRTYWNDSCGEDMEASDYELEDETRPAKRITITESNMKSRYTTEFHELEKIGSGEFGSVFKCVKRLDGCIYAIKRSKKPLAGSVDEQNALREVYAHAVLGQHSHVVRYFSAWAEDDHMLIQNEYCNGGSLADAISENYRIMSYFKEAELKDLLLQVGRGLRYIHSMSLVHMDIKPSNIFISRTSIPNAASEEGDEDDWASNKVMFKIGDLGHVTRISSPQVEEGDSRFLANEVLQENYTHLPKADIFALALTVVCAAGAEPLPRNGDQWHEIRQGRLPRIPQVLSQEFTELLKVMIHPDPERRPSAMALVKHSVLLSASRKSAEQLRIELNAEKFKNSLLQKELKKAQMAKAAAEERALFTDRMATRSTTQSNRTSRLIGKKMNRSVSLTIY

IC50 (WEE1 kinase) [nM]	IC50 ([1]; Homo sapiens, 72 h) [nM]	IC50 [1] [nM]	Compound
0.91	85	–	Cc1cc2cnc(Nc3ccc(N4CCC5(CCN(C)CC5)CC4)cc3)nc2n1-c1cccc(C(C)(C)O)n1 [Example 147, 2-(6-(6-methyl-2-((4-(9-methyl-3,9-diazaspiro[5.5]undecan-3-yl)phenyl)amino)-7H-pyrrolo[2,3-d]pyrimidin-7-yl)pyridin 2-yl)propan-2-ol]
0.48	53	–	CN1CCC2(CC1)CCN(c1ccc(Nc3ncc4c(F)c(C5CC5)n(-c5cccc(N=S(C)(C)=O)n5)c4n3)cc1)CC2 [Example 126, ((6-(6-cyclopropyl-5-fluoro-2-((4-(9-methyl-3,9-diazaspiro(5.5)undecan-3-yl)phenyl)amino)-7H-pyrrolo[2,3-d]pyrimidin-7-yl)pyridin-2-yl)imino)dimethyl-λ^6-sulfanone]
0.22	32	–	Cc1cc2cnc(Nc3ccc(N4CCC(N5CCN(C)CC5)CC4)cc3)nc2n1-c1cccc(N=S(C)(C)=O)n1 [Example 150]
0.85	79	–	CN1CC2(CCN(c3ccc(Nc4ncc5cc(C6CC6)n(-c6cccc(N=S(C)(C)=O)n6)c5n4)cc3)CC2)C1 [Example 85, ((6-(6-cyclopropyl-2-((4-(2-methyl-2,7-diazaspiro[3.5]nonan-7-yl)phenyl)amino)-7H-pyrrolo[2,3-d]pyrimidin-7-yl)pyridin-2-yl)imino)dimethyl-λ^6-sulfanone]
0.2	23	–	CCc1cc2cnc(Nc3ccc(N4CCN(C)CC4)cc3)nc2n1-c1cccc(N=S(C)(C)=O)n1 [Example 152]
0.6	66	–	Cc1cc2cnc(Nc3ccc(N4CCN(CCN(C)C)CC4)cc3)nc2n1-c1cccc(N=S(C)(C)=O)n1 [Example 151, ((6-(2-((4-(4-(2-(dimethylamino)ethyl)piperazin-1-yl)phenyl)amino)-6-methyl-7H-pyrrolo[2,3-d]pyrimidin-7-yl)pyridin-2-yl)imino)dimethyl-λ^6-sulfanone]
0.69	–	64	Cc1cc2cnc(Nc3ccc(N4CCC5(CCN(C)CC5)CC4)cc3)nc2n1-c1cccc(N=S(C)(C)=O)n1 [Example 139, ((6-(6-methyl-2-((4-(9-methyl-3,9-diazaspiro[5.5]undecan-3-yl)phenyl)amino)-7H-pyrrolo[2,3-d]pyrimidin-7-yl)pyridin-2-yl)imino)dimethyl-λ^6-sulfanone]
0.68	74	–	C=C(C)c1cc2cnc(Nc3ccc(N4CCN(C)CC4)cc3)nc2n1-c1cccc(N=S(C)(C)=O)n1 [Example 135, dimethyl((6-(2-((4-(4-methylpiperazin-1-yl)phenyl)amino)-6-(prop-1-en-2-yl)-7H-pyrrolo[2,3-d]pyrimidin-7-yl)pyridin-2-yl)imino)-λ^6-sulfanone]

Continued, compound first:

Compound	IC50 (WEE1 kinase) [nM]	IC50 ([1]; Homo sapiens, 72 h) [nM]	IC50 [1] [nM]
CCc1cc2cnc(Nc3ccc(N4CCN(CCN(C)C)CC4)cc3)nc2n1-c1cccc(N=S(C)(C)=O)n1 [Example 155, ((6-(2-((4 (4-(2-(dimethylamino)ethyl)piperazin-1-yl)phenyl)amino)-6-ethyl-7H-pyrrolo[2,3-d]pyrimidin-7-yl)pyridin-2-yl)imino)dimethyl-λ^6-sulfanone]	1.02	89	–
CN1CCN(c2ccc(Nc3ncc4cc(C5CC5)n(-c5cccc(N=S(C)(C)=O)n5)c4n3)cc2F)CC1 [Example 40, ((6-(2-(((3-fluoro-4-(4-methylpiperazin-1-yl)phenyl))amino) 6-cyclopropyl-7H-pyrrolo[2,3-d]pyrimidin-7-yl)pyridin-2-yl)imino)dimethyl-λ^6-sulfanone]	0.51	42	–
CCCc1c(F)c2cnc(Nc3ccc(N4CCN(C)CC4)cc3)nc2n1-c1cccc(N=S(C)(C)=O)n1 [Example 1, ((6-(5-fluoro-2-((4-(4-methylpiperazin-1-yl)phenyl)amino)-6-propyl-7H-pyrrolo[2,3-d]pyrimidin-7-yl)pyridin-2-yl)imino)dimethyl-λ^6-sulfanone]	0.57	43	–
CCc1cc2cnc(Nc3ccc(N4CCC(N5CCN(C)CC5)CC4)cc3)nc2n1-c1cccc(N=S(C)(C)=O)n1 [Example 154, ((6-(6-ethyl-2-((4 (4-(4-methylpiperazin-1-yl)piperidin-1-yl)phenyl)amino)-7H-pyrrolo[2,3-d]pyrimidin-7-yl)pyridin-2-yl)imino)dimethyl-λ^6-sulfanone]	0.53	69	–
CC1(O)CN(N2CCN(c3ccc(Nc4ncc5cc(C6CC6)n(-c6cccc(N=S(C)(C)=O)n6)c5n4)cc3)CC2)C1 [Example 98, ((6-(6-cyclopropyl-2-((4-(4-(3-hydroxy-3-methylazetidin-1-yl)piperazin-1-yl)phenyl)-amino)-7H-pyrrolo[2,3-d]pyrimidin-7-yl)pyridin-2-yl)imino)dimethyl-λ^6-sulfanone]	0.79	–	84
COC(=O)CN1CCN(c2ccc(Nc3ncc4cc(C5CC5)n(-c5cccc(N=S(C)(C)=O)n5)c4n3)cc2)CC1 [Example 127]	0.66	70	–
CN1CC2(CCN(c3ccc(Nc4ncc5c(F)c(C6CC6)n(-c6cccc(N=S(C)(C)=O)n6)c5n4)cc3)CC2)C1 [Example 86, ((6-(6-cyclopropyl-5-fluoro-2-((4-(2-methyl-2,7-diazaspiro[3.5]nonan-7-yl)phenyl)amino)-7H-pyrrolo[2,3-d]pyrimidin-7-yl)pyridin-2-yl)imino)dimethyl-λ^6-sulfanone]	0.54	60	–
CN1CCN(C2CCN(c3ccc(Nc4ncc5c(F)c(C6CC6)n(-c6cccc(N=S(C)(C)=O)n6)c5n4)cc3F)CC2)CC1 [Example 47, ((6-(5-fluoro-2-((3-fluoro-4-(4-(4-methylpiperazin-1-yl)piperidin-1-yl)phenyl)amino)-6-cyclopropyl-7H-pyrrolo[2,3-d]pyrimidin-7-yl)pyridin-2-yl)imino)dimethyl-λ^6-sulfanone]	0.97	63	–
Cc1cc(Nc2ncc3cc(C4CC4)n(-c4cccc(N=S(C)(C)=O)n4)c3n2)ccc1N1CCC(N2CCN(C)CC2)CC1 [Example 52, ((6-(2-((3-methyl-4-(4-(4-methylpiperazin-1-yl)piperidin-1-yl)phenyl)amino)-6-cyclopropyl-7H-pyrrolo[2,3-d]pyrimidin-7-yl)pyridin-2-yl)imino)dimethyl-λ^6-sulfanone]	0.63	56	–
CN(C)CCN1CCN(c2ccc(Nc3ncc4cc(C5CC5)n(-c5cccc(N=S(C)(C)=O)n5)c4n3)cc2)CC1 [Example 108]	0.61	70	–
CN(C)CCc1ccc(Nc2ncc3c(F)c(C4CC4)n(-c4ccnc(N=S(C)(C)=O)n4)c3n2)cc1 [Example 32, ((6-(5-fluoro-2-((4-(2-(dimethylamino)ethyl)phenyl)amino)-6-cyclopropyl-7H-pyrrolo[2,3-d]pyrimidin-7-yl)pyrimidin-2-yl)imino)dimethyl-λ^6-sulfanone]	0.69	–	31
CN1[C@@H]2CC[C@H]1CN(c1ccc(Nc3ncc4c(F)c(C5CC5)n(-c5cccc(N=S(C)(C)=O)n5)c4n3)cc1)C2 [Example 82, ((6-(6-cyclopropyl-5-fluoro-2-((4-((1R,5S)-8-methyl-3,8-diazabicyclo[3.2.1]octan-3-yl)phenyl)amino)-7H-pyrrolo[2,3-d]pyrimidin-7-yl)pyridin-2-yl)imino)dimethyl-Ab-sulfanone]	0.58	64	–
